Legend:
Sprague-Dawley rats = test: Infarct volume after permanent (6 h) middle cerebral artery occlusion; type: in vivo, rat; conditions: 0.1 or 1.0 mg/kg iv 30 min prior to 6 h permanent occlusion (no reperfusion)
Text: The detailed methodology for permanent middle cerebral artery occlusion (MCAO) and transient (I/R) occlusion of the middle cerebral artery has been published previously.^46 Briefly, animals were placed in a David Kopf stereotaxic frame (Tujunga, Calif.), and the right middle cerebral artery (MCA) approached through a rostral-caudal incision of the skin and frontalis muscle at the approximate level of bregma. Blood flow through the MCA was impeded by the placement of surgical suture behind the MCA at three designated positions along the exposed vessel. […] The concentration of 0.1 mg/kg represents the optimal dose of the compound of Formula (Ia), as determined above, and 1.0 mg/kg represents a 10-fold higher concentration of the optimal dose, as the optimal dose of 0.1 mg/kg was not effective in producing neuroprotection. […] At the end of each experiment in which infarct volume was measured, animals were transcardially perfused with PBS (0.1 M; 200 ml), the brains were removed and sliced into 1-mm coronal sections using a rat brain matrix (Harvard Apparatus, Holliston, Mass.). […] Infarct volumes were calculated with the use of scanned digital images of each brain section. The infarct area for both sides of each brain section was calculated using a computer-assisted imaging system (Scion, Frederick, Md.). […]

[1] = tested on: dog liver microsomes (DLM); test: Metabolic stability using dog liver microsomes; type: in vitro ADME
Text: Table 9 summarizes the experimental conditions used in the studies of the metabolic stability of the compound of Formula (Ia) using dog liver microsomes and human liver microsomes.

[2] = Stability in sodium phosphate buffer (HPLC); type: physicochemical; conditions: for stability in sodium phosphate buffer: 50 mM, HPLC; for half-life: buffer without microsomes and without NADPH; for half-life / % Metabolism in 30 minutes / CLintr (mL/min/g liver): matrix buffer (no microsomes, no NADPH)
Procedure: The stability of the compound of Formula (Ia) in a sodium phosphate buffer (50 mM, pH 7.4) was evaluated using HPLC. […] Area counts of apocynin and lipoid acid were found in 0 minute samples and were generally constant until the last time point measured (see: FIGS. 11-12 and Tables 5-6).

Compound: COc1cc(C(C)=O)ccc1OC(=O)CCCCC1CCSS1 (stereo not drawn) [compound of Formula (Ia)]
- neuroprotection (infarct volume) in permanent MCAO (Sprague-Dawley rats): did not produce neuroprotection
- % Metabolism in 30 minutes ([1]; DLM control (without NADPH)): 0%
- CLintr (mL/min/g liver) ([1]; DLM control (without NADPH)): >67 mL/min/g liver
- % Metabolism in 30 minutes ([1]; DLM reaction (with NADPH)): 0%
- CLintr (mL/min/g liver) ([1]; DLM reaction (with NADPH)): >67 mL/min/g liver
- % Remaining ([2]; 0.5 μM in sodium phosphate buffer (50 mM, pH 7.4), 0 min, Set-1): 100%
- % Remaining ([2]; 0.5 μM in sodium phosphate buffer (50 mM, pH 7.4), 3 min, Set-1): 64%
- % Remaining ([2]; 0.5 μM in sodium phosphate buffer (50 mM, pH 7.4), 6 min, Set-1): 50%
- % Remaining ([2]; 0.5 μM in sodium phosphate buffer (50 mM, pH 7.4), 9 min, Set-1): 55%
- % Remaining ([2]; 0.5 μM in sodium phosphate buffer (50 mM, pH 7.4), 12 min, Set-1): 50%
- % Remaining ([2]; 0.5 μM in sodium phosphate buffer (50 mM, pH 7.4), 15 min, Set-1): 50%
- % Remaining ([2]; 0.5 μM in sodium phosphate buffer (50 mM, pH 7.4), 18 min, Set-1): 50%
- % Remaining ([2]; 0.5 μM in sodium phosphate buffer (50 mM, pH 7.4), 21 min, Set-1): 73%
- % Remaining ([2]; 0.5 μM in sodium phosphate buffer (50 mM, pH 7.4), 27 min, Set-1): 64%
- % Remaining ([2]; 0.5 μM in sodium phosphate buffer (50 mM, pH 7.4), 30 min, Set-1): 77%
- stability in sodium phosphate buffer ([2]; 0.5 μM, pH 7.4): stable
- % Remaining ([2]; 10 μM in sodium phosphate buffer (50 mM, pH 7.4), 0 min, Set-1): 100%
- % Remaining ([2]; 10 μM in sodium phosphate buffer (50 mM, pH 7.4), 3 min, Set-1): 83%
- % Remaining ([2]; 10 μM in sodium phosphate buffer (50 mM, pH 7.4), 6 min, Set-1): 73%
- % Remaining ([2]; 10 μM in sodium phosphate buffer (50 mM, pH 7.4), 9 min, Set-1): 83%
- % Remaining ([2]; 10 μM in sodium phosphate buffer (50 mM, pH 7.4), 12 min, Set-1): 73%
- % Remaining ([2]; 10 μM in sodium phosphate buffer (50 mM, pH 7.4), 15 min, Set-1): 74%
- % Remaining ([2]; 10 μM in sodium phosphate buffer (50 mM, pH 7.4), 18 min, Set-1): 71%
- % Remaining ([2]; 10 μM in sodium phosphate buffer (50 mM, pH 7.4), 21 min, Set-1): 76%
- % Remaining ([2]; 10 μM in sodium phosphate buffer (50 mM, pH 7.4), 27 min, Set-1): 57%
- % Remaining ([2]; 10 μM in sodium phosphate buffer (50 mM, pH 7.4), 30 min, Set-1): 79%
- stability in sodium phosphate buffer ([2]; 10 μM, pH 7.4): stable
- half-life ([2]; DLM/HLM study): 23 min
- half-life ([2]; rat liver microsome study): > 30 min
- % Remaining ([2]; buffer, 0 h, 0.5 μM, pH 7.4): 100%
- Apocynin area counts, % Remaining ([2]; buffer, 0 h, 0.5 μM, pH 7.4): 100%
- Lipoic acid area counts, % Remaining ([2]; buffer, 0 h, 0.5 μM, pH 7.4): 100%
- % Remaining ([2]; buffer, 0 h, 10 μM, pH 7.4): 100%
- Apocynin area counts, % Remaining ([2]; buffer, 0 h, 10 μM, pH 7.4): 100%
- Lipoic acid area counts, % Remaining ([2]; buffer, 0 h, 10 μM, pH 7.4): 100%
- % Remaining ([2]; buffer, 0.05 h, 0.5 μM, pH 7.4): 71%
- Apocynin area counts, % Remaining ([2]; buffer, 0.05 h, 0.5 μM, pH 7.4): 78%
- Lipoic acid area counts, % Remaining ([2]; buffer, 0.05 h, 0.5 μM, pH 7.4): 103%
- % Remaining ([2]; buffer, 0.05 h, 10 μM, pH 7.4): 92%
- Apocynin area counts, % Remaining ([2]; buffer, 0.05 h, 10 μM, pH 7.4): 96%
- Lipoic acid area counts, % Remaining ([2]; buffer, 0.05 h, 10 μM, pH 7.4): 100%
- % Remaining ([2]; buffer, 0.1 h, 0.5 μM, pH 7.4): 59%
- Apocynin area counts, % Remaining ([2]; buffer, 0.1 h, 0.5 μM, pH 7.4): 68%
- Lipoic acid area counts, % Remaining ([2]; buffer, 0.1 h, 0.5 μM, pH 7.4): 99%
- % Remaining ([2]; buffer, 0.1 h, 10 μM, pH 7.4): 80%
- Apocynin area counts, % Remaining ([2]; buffer, 0.1 h, 10 μM, pH 7.4): 91%
- Lipoic acid area counts, % Remaining ([2]; buffer, 0.1 h, 10 μM, pH 7.4): 105%
- % Remaining ([2]; buffer, 0.15 h, 0.5 μM, pH 7.4): 47%
- Apocynin area counts, % Remaining ([2]; buffer, 0.15 h, 0.5 μM, pH 7.4): 65%
- Lipoic acid area counts, % Remaining ([2]; buffer, 0.15 h, 0.5 μM, pH 7.4): 91%
- % Remaining ([2]; buffer, 0.15 h, 10 μM, pH 7.4): 87%
- Apocynin area counts, % Remaining ([2]; buffer, 0.15 h, 10 μM, pH 7.4): 94%
- Lipoic acid area counts, % Remaining ([2]; buffer, 0.15 h, 10 μM, pH 7.4): 113%
- % Remaining ([2]; buffer, 0.2 h, 0.5 μM, pH 7.4): 53%
- Apocynin area counts, % Remaining ([2]; buffer, 0.2 h, 0.5 μM, pH 7.4): 71%
- Lipoic acid area counts, % Remaining ([2]; buffer, 0.2 h, 0.5 μM, pH 7.4): 89%
- % Remaining ([2]; buffer, 0.2 h, 10 μM, pH 7.4): 76%
- Apocynin area counts, % Remaining ([2]; buffer, 0.2 h, 10 μM, pH 7.4): 95%
- Lipoic acid area counts, % Remaining ([2]; buffer, 0.2 h, 10 μM, pH 7.4): 118%
- % Remaining ([2]; buffer, 0.25 h, 0.5 μM, pH 7.4): 65%
- Apocynin area counts, % Remaining ([2]; buffer, 0.25 h, 0.5 μM, pH 7.4): 68%
- Lipoic acid area counts, % Remaining ([2]; buffer, 0.25 h, 0.5 μM, pH 7.4): 106%
- % Remaining ([2]; buffer, 0.25 h, 10 μM, pH 7.4): 72%
- Apocynin area counts, % Remaining ([2]; buffer, 0.25 h, 10 μM, pH 7.4): 86%
- Lipoic acid area counts, % Remaining ([2]; buffer, 0.25 h, 10 μM, pH 7.4): 114%
- % Remaining ([2]; buffer, 0.3 h, 0.5 μM, pH 7.4): 59%
- Apocynin area counts, % Remaining ([2]; buffer, 0.3 h, 0.5 μM, pH 7.4): 70%
- Lipoic acid area counts, % Remaining ([2]; buffer, 0.3 h, 0.5 μM, pH 7.4): 96%
- % Remaining ([2]; buffer, 0.3 h, 10 μM, pH 7.4): 71%
- Apocynin area counts, % Remaining ([2]; buffer, 0.3 h, 10 μM, pH 7.4): 80%
- Lipoic acid area counts, % Remaining ([2]; buffer, 0.3 h, 10 μM, pH 7.4): 121%
- % Remaining ([2]; buffer, 0.35 h, 0.5 μM, pH 7.4): 76%
- Apocynin area counts, % Remaining ([2]; buffer, 0.35 h, 0.5 μM, pH 7.4): 82%
- Lipoic acid area counts, % Remaining ([2]; buffer, 0.35 h, 0.5 μM, pH 7.4): 117%
- % Remaining ([2]; buffer, 0.35 h, 10 μM, pH 7.4): 69%
- Apocynin area counts, % Remaining ([2]; buffer, 0.35 h, 10 μM, pH 7.4): 82%
- Lipoic acid area counts, % Remaining ([2]; buffer, 0.35 h, 10 μM, pH 7.4): 127%
- % Remaining ([2]; buffer, 0.45 h, 0.5 μM, pH 7.4): 71%
- Apocynin area counts, % Remaining ([2]; buffer, 0.45 h, 0.5 μM, pH 7.4): 79%
- Lipoic acid area counts, % Remaining ([2]; buffer, 0.45 h, 0.5 μM, pH 7.4): 119%
- % Remaining ([2]; buffer, 0.45 h, 10 μM, pH 7.4): 64%
- Apocynin area counts, % Remaining ([2]; buffer, 0.45 h, 10 μM, pH 7.4): 80%
- Lipoic acid area counts, % Remaining ([2]; buffer, 0.45 h, 10 μM, pH 7.4): 134%
- % Remaining ([2]; buffer, 0.5 h, 0.5 μM, pH 7.4): 94%
- Apocynin area counts, % Remaining ([2]; buffer, 0.5 h, 0.5 μM, pH 7.4): 85%
- Lipoic acid area counts, % Remaining ([2]; buffer, 0.5 h, 0.5 μM, pH 7.4): 151%
- % Remaining ([2]; buffer, 0.5 h, 10 μM, pH 7.4): 71%
- Apocynin area counts, % Remaining ([2]; buffer, 0.5 h, 10 μM, pH 7.4): 78%
- Lipoic acid area counts, % Remaining ([2]; buffer, 0.5 h, 10 μM, pH 7.4): 141%
- % Metabolism in 30 minutes ([2]; DLM/HLM study): 34%
- CLintr (mL/min/g liver) ([2]; DLM/HLM study): 3.2 mL/min/g liver
- % Metabolism in 30 minutes ([2]; rat liver microsome study): 21%
- CLintr (mL/min/g liver) ([2]; rat liver microsome study): 2.3 mL/min/g liver

Reference: patent US9012492B2, “Apocynin-lipoic acid conjugates and uses thereof” (priority 2011, dated 2015)
